Patent US9328374B2, “Selective culture medium and method for detecting carbapenem-resistant bacteria in a test sample” (Institut National de la Sante et de la Recherche Medicale …, priority 2011, dated 2016)
Like-named read-outs stand apart in the source and are kept apart here.

Columns and labels:
Experiment in all cases: MIC of imipenem, ertapenem and meropenem
[1] = system: K. pneumoniae; assay type: cell-based, Klebsiella pneumoniae; conditions: Klebsiella pneumoniae, read-out: MIC
[2] = system: P. mirabilis; assay type: cell-based
[3] = system: S. typhimurium; assay type: cell-based

In the case of C[C@@H](O)[C@H]1C(=O)N2C(C(=O)O)=C(S[C@@H]3CN[C@H](C(=O)Nc4cccc(C(=O)O)c4)C3)[C@H](C)[C@H]12 [ETP, ertapenem], the MIC ([1]; K. pneumoniae LIB (OXA-48)) is reported as greater than 32 µg/mL, the MIC ([1]; K. pneumoniae LIB, OXA-48) is reported as 16 µg/mL and the MIC ([1]; K. pneumoniae LIE, KPC-2 + TEM-2 + OXA-9) is reported as greater than 32 µg/mL. For the same molecule, the MIC ([1]; K. pneumoniae LOU, OXA-48) was 16 µg/mL, the MIC ([1]; K. pneumoniae MAD (VIM-1 + CTX-M-3)) was 0.5 µg/mL and the MIC ([1]; K. pneumoniae MAD, VIM-1+ CTX-M-3) was 0.5 µg/mL. For the same molecule, the MIC ([1]; K. pneumoniae MEK (CTX-M-15 + SHV-11)) was greater than 32 µg/mL, the MIC ([1]; K. pneumoniae MEK, CTX-M-15 + SHV-11, non-carbapenemase producer, porin deficiency) was greater than 32 µg/mL and the MIC ([1]; K. pneumoniae MUS (KPC-2 + TEM-1 + SHV-11 + SHV-12)) was 4 µg/mL. It also gave an MIC ([1]; K. pneumoniae MUS, KPC-2 + TEM-1 + SHV-11 + SHV-12) of 4 µg/mL, an MIC ([1]; K. pneumoniae OM2 (NDM-1 + TEM-1 + CTX-M-3 + SHV-11 + OXA-1)) of 8 µg/mL and an MIC ([1]; K. pneumoniae OM2, NDM-1 + TEM-1 + CTX-M-3 + SHV-11 + OXA-1) of 8 µg/mL. For the same molecule, the MIC ([1]; K. pneumoniae OM4, NDM-1 + TEM-1 + CTX-M-15 + SHV-12 + OXA-9) was greater than 32 µg/mL, the MIC ([1]; K. pneumoniae OM8, NDM-1 + TEM-1 + CTX-M-15 + SHV-11 + OXA-1) was greater than 32 µg/mL and the MIC ([1]; K. pneumoniae OM11, OXA-48 + TEM-1 + CTX-M-14) was 0.75 µg/mL. The MIC ([1]; K. pneumoniae OM13, NDM-1 + TEM-1 + CTX-M-15 + SHV-28 + OXA-1 + OXA-9) was 4 µg/mL, the MIC ([1]; K. pneumoniae OM14, OXA-48 + TEM-1) was 1 µg/mL and the MIC ([1]; K. pneumoniae OM15, NDM-1 + CTX-M-15 + SHV-130 + OXA-1) was 12 µg/mL. The MIC ([1]; K. pneumoniae OM16, NDM-1 + CTX-M-15 + OXA-1 + OXA-181) was greater than 32 µg/mL, the MIC ([1]; K. pneumoniae OM19, NDM-1 + CTX-M-15 + SHV-12 + OXA-1) was 24 µg/mL and the MIC ([1]; K. pneumoniae OMA419 (NDM-1 + OXA-1)) was 6 µg/mL. The MIC ([1]; K. pneumoniae OMA419, NDM-1 + OXA-1) was 6 µg/mL, the MIC ([1]; K. pneumoniae OMA601, NDM-1 + CTX-M-15 + OXA-1 + OXA-9) was greater than 32 µg/mL and the MIC ([1]; K. pneumoniae OMA (OXA-181 + CTX-M-15 + OXA-1)) was 2 µg/mL. It also gave an MIC ([1]; K. pneumoniae OMA, OXA-181 + CTXM-15 + OXA-1) of 2 µg/mL, an MIC ([1]; K. pneumoniae RAM (OXA-48)) of 4 µg/mL and an MIC ([1]; K. pneumoniae RAM, OXA-48) of 4 µg/mL. The MIC ([1]; K. pneumoniae ROB (OXA-48 + CTX-M-15 + TEM-1)) was 3 µg/mL, the MIC ([1]; K. pneumoniae ROU (OXA-48 + CTX-M-15)) was 1.5 µg/mL and the MIC ([1]; K. pneumoniae ROU, OXA-48 + CTX-M-15) was 1.5 µg/mL. The MIC ([1]; K. pneumoniae SCO (OXA-48)) was 0.75 µg/mL, the MIC ([1]; K. pneumoniae SCO, OXA-48) was 0.75 µg/mL and the MIC ([1]; K. pneumoniae SHI (CTX-M-15 + TEM-1 + SHV-1)) was 1 µg/mL. It also gave an MIC ([1]; K. pneumoniae SHI, CTX-M-15 + TEM-1 + SHV-11, non-carbapenemase producer, porin deficiency) of 1 µg/mL, an MIC ([1]; K. pneumoniae SHM (CTX-M-15 + TEM-1 + SHV-11)) greater than 32 µg/mL and an MIC ([1]; K. pneumoniae SHM, CTX-M-15 + TEM-1 + SHV-11, non-carbapenemase producer, porin deficiency) greater than 32 µg/mL. It also gave an MIC ([1]; K. pneumoniae SIC (OXA-48 + CTX-M-15 + SHV-28)) of 1 µg/mL, an MIC ([1]; K. pneumoniae SIC, OXA-48 + CTX-M-15 + SHV-28) of 1 µg/mL and an MIC ([1]; K. pneumoniae SIM (CTX-M-15 + TEM-1 + SHV-1)) greater than 32 µg/mL. For the same molecule, the MIC ([1]; K. pneumoniae SIM, CTX-M-15 + TEM-1 + SHV-1, non-carbapenemase producer, porin deficiency) was greater than 32 µg/mL, the MIC ([1]; K. pneumoniae TAW, IMP-8 + SHV-12) was 0.5 µg/mL and the MIC ([1]; K. pneumoniae TIK, OXA-48) was 2 µg/mL. The MIC ([1]; K. pneumoniae TUR (IMP-1)) was 2 µg/mL, the MIC ([1]; K. pneumoniae TUR, IMP-1) was 2 µg/mL and the MIC ([1]; K. pneumoniae TWA, IMP-8) was 1 µg/mL. The MIC ([1]; K. pneumoniae UK (NDM-1 + CTX-M-15 + CMY-4 + OXA-1)) was greater than 32 µg/mL, the MIC ([1]; K. pneumoniae UK, NDM-1 + CTX-M-15 + CMY-4 + OXA-1) was greater than 32 µg/mL and the MIC ([1]; K. pneumoniae VER, OXA-48 + TEM-1 + CTX-M-15 + SHV-11) was 2 µg/mL. The MIC ([1]; K. pneumoniae VSG (OXA-48 + TEM-1 + CTX-M-15 + OXA-1)) was 3 µg/mL, the MIC ([1]; K. pneumoniae VSG, OXA-48 + TEM-1 + CTX-M-15 + OXA-1) was 3 µg/mL and the MIC ([1]; K. pneumoniae YC, KPC-2 + TEM-1 + SHV-11 + SHV-12 + OXA-9) was 24 µg/mL. The MIC ([1]; strain K. pneumoniae 7725, SHV-1, non-carbapenemase producer) was 0.006 µg/mL, the MIC ([1]; strain K. pneumoniae 648236, SHV-2a, non-carbapenemase producer) was 2 µg/mL and the MIC ([1]; strain K. pneumoniae ALE, CTX-M-15 + SHV-1, non-carbapenemase producer) was greater than 32 µg/mL. It also gave an MIC ([1]; strain K. pneumoniae AMS, OXA-48 + TEM-1 + CTX-M-15 + OXA-1) of 2 µg/mL, an MIC ([1]; strain K. pneumoniae BAJ, OXA-48 + TEM-1 + CTX-M-15 + SHV-28) of 1.5 µg/mL and an MIC ([1]; strain K. pneumoniae BED, CTX-M-15 + TEM-1 + SHV-11, non-carbapenemase producer) greater than 32 µg/mL. The MIC ([1]; strain K. pneumoniae BEL, OXA-48) was 4 µg/mL, the MIC ([1]; strain K. pneumoniae BEN, OXA-48 + TEM-1 + CTX-M-15 + SHV-28) was 1 µg/mL and the MIC ([1]; strain K. pneumoniae BER, SHV-28 + TEM-1, non-carbapenemase producer) was 4 µg/mL. It also gave an MIC ([1]; strain K. pneumoniae ELK, OXA-48 + TEM-1 + CTX-M-15 + SHV-11) of 3 µg/mL, an MIC ([1]; strain K. pneumoniae HOL, OXA-181 + CTX-M-15) of 4 µg/mL and an MIC ([1]; strain K. pneumoniae MUS, KPC-2 + TEM-1 + SHV-11 + SHV-12) of 4 µg/mL. For the same molecule, the MIC ([1]; strain K. pneumoniae OM2, NDM-1 + TEM-1 + CTX-M-3 + SHV-11 + OXA-1) was 8 µg/mL, the MIC ([1]; strain K. pneumoniae OMA419, NDM-1 + OXA-1) was 6 µg/mL and the MIC ([1]; strain K. pneumoniae OMA, OXA-181 + CTXM-15 + OXA-1) was 2 µg/mL. For the same molecule, the MIC ([1]; strain K. pneumoniae ROU, OXA-48 + CTX-M-15) was 1.5 µg/mL, the MIC ([1]; strain K. pneumoniae SCO, OXA-48) was 0.75 µg/mL and the MIC ([1]; strain K. pneumoniae SIC, OXA-48 + CTX-M-15 + SHV-28) was 1 µg/mL. It also gave an MIC ([1]; strain K. pneumoniae VSG, OXA-48 + TEM-1 + CTX-M-15 + OXA-1) of 3 µg/mL, an MIC ([2]; P. mirabilis PMA (ACC-1)) of 0.094 µg/mL and an MIC ([2]; Proteus mirabilis, P. mirabilis 1031 (CTX-M-14 + TEM-1 + SHV-11), read-out: MIC) of 0.047 µg/mL. For the same molecule, the MIC ([2]; Proteus mirabilis, P. mirabilis 1031, CTX-M-14 + TEM-1 + SHV-11, non-carbapenemase producer, read-out: MIC) was 0.047 µg/mL, the MIC ([2]; Proteus mirabilis, P. mirabilis PMA (ACC-1), read-out: MIC) was 0.12 µg/mL and the MIC ([2]; Proteus mirabilis, P. mirabilis PMA, ACC-1, non-carbapenemase producer, read-out: MIC) was 0.094 µg/mL. The MIC ([3]; S. typhimurium 1081 (CTX-M-1)) was 0.19 µg/mL, the MIC ([3]; Salmonella enterica, S. typhimurium 1081, CTX-M-1, non-carbapenemase producer, read-out: MIC) was 0.19 µg/mL and the MIC ([3]; strain S. typhimurium 1081, CTX-M-1, non-carbapenemase producer) was 0.19 µg/mL.
